Experimental data from patent US20240158348A1, “HERBICIDAL CYCLIC AMIDES N-SUBSTITUTED WITH A HALOALKYLSULFONYLANILIDE GROUP” (FMC Corporation, priority 2021, published 2024).

Assays:
Assay type in all cases: in vivo
[1] = system: pigweed, palmer (palmer amaranth, Amaranthus palmeri); experiment: Test C preemergence, palmer amaranth; details: 0 is no effect, 100 is complete control
In short: (§1)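 Visual injury rating, 0 (no effect) to 100 (complete control), versus untreated controls after 10 or 12 days in the greenhouse. Compounds were formulated in non-phytotoxic solvent plus surfactant and applied either as a directed soil spray at sowing or onto emerged one- to two-leaf plants.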

[2] = system: oat, wild (wild oat, Avena fatua); experiment: Test C postemergence, wild oat; details: for Oat, Wild plant response rating: 31 g ai/ha Postemergence, visual injury, 0 to 100 scale (0 no effect, 100 complete control); for Plant response rating (0 to 100 scale), Oat, Wild: 125 g ai/ha Postemergence, 0 is no effect, 100 is complete control
[3] = system: ragweed (common ragweed, Ambrosia artemisiifolia); experiment: Test C preemergence, ragweed; details: 0 is no effect, 100 is complete control
In short: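 Herbicidal effect was estimated visually on a 0–100 scale 10 or 12 days after spraying. Formulation: non-phytotoxic solvent mixture with surfactant. Timing: directed soil spray after sowing, or postemergence on seedlings bearing one or two leaves.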

rice (Oryza sativa) = experiment: Test D flooded paddy test, rice; set-up: key: 0 = no effect, 100 = complete control; details: 250 g ai/ha, Flood; applied to paddy water at 2-leaf stage; visual rating after 13 days; scale 0 (no effect) to 100 (complete control)
In short: (§2)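 Under 3 cm of standing water, kept constant after treatment, 2-leaf plants received compound via the paddy water. Ratings on a 0–100 control scale were assigned visually after 13 greenhouse days; a dash denotes no test result.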

[4] = system: wheat (Triticum aestivum); experiment: Test C preemergence, wheat; details: 0 is no effect, 100 is complete control
[5] = system: wheat (Triticum aestivum); experiment: Test C postemergence, wheat; details: for Wheat plant response rating: visual injury, 0 to 100 scale (0 no effect, 100 complete control); for Plant response rating (0 to 100 scale), Wheat: 0 is no effect, 100 is complete control
In short: as §1

[6] = system: ducksalad (Heteranthera limosa); experiment: Test D flooded paddy test, ducksalad; set-up: key: 0 = no effect, 100 = complete control; details: 250 g ai/ha, Flood; applied to paddy water at 2-leaf stage; visual rating after 13 days; scale 0 (no effect) to 100 (complete control)
In short: as §2

[7] = system: blackgrass (Alopecurus myosuroides); experiment: Test C postemergence, blackgrass; details: 31 g ai/ha Postemergence; visual injury, 0 to 100 scale (0 no effect, 100 complete control)
In short: as §1

[8] = system: horseweed (Erigeron canadensis); experiment: Test C postemergence, horseweed; details: for Horseweed plant response rating: 31 g ai/ha Postemergence, visual injury, 0 to 100 scale (0 no effect, 100 complete control); for Plant response rating (0 to 100 scale), Horseweed: 125 g ai/ha Postemergence, 0 is no effect, 100 is complete control
In short: as §1

Compound | Plant response rating (0 to 100 scale), Pigweed, Palmer ([1]; 31 g ai/ha Preemergence) | Plant response rating (0 to 100 scale), Pigweed, Palmer ([1]; 125 g ai/ha Preemergence) | Oat, Wild plant response rating [2] | Plant response rating (0 to 100 scale), Oat, Wild [2] | Plant response rating (0 to 100 scale), Ragweed ([3]; 31 g ai/ha Preemergence) | Plant response rating (0 to 100 scale), Ragweed ([3]; 125 g ai/ha Preemergence) | Plant response rating, Rice (rice (Oryza sativa)) | Plant response rating (0 to 100 scale), Wheat ([4]; 31 g ai/ha Preemergence) | Plant response rating (0 to 100 scale), Wheat ([4]; 125 g ai/ha Preemergence) | Wheat plant response rating ([5]; 31 g ai/ha Postemergence) | Plant response rating (0 to 100 scale), Wheat ([5]; 125 g ai/ha Postemergence) | Plant response rating, Ducksalad [6] | Blackgrass plant response rating [7] | Horseweed plant response rating [8] | Plant response rating (0 to 100 scale), Horseweed [8] | Wheat plant response rating ([5]; 125 g ai/ha Postemergence)
Cc1cc(C)c(N(C(=O)OC(C)C)S(=O)(=O)C(F)(F)F)cc1N1CCC(OC2CC2)C1=O (stereo not drawn) [Compound 18] | 0 | 20 | 0 | 0 | 0 | 0 | 0 | 0 | 0 | 0 | 0 | 0 | 0 | 0 | 0 | 
CCOC(=O)N(c1cc(N2CCC(OC3CC3)C2=O)c(C)cc1C)S(=O)(=O)C(F)(F)F (stereo not drawn) [Compound 19] | 20 | 60 | 0 | 30 | 0 | 10 | 0 | 0 | 10 | 0 | 10 | 0 | 0 | 10 | 30 | 
CCCC(=O)OCN(c1cc(N2CCC(OC3CC3)C2=O)c(C)cc1C)S(=O)(=O)C(F)(F)F (stereo not drawn) [Compound 20] | 90 | 100 | 30 | 80 | 60 | 90 | 15 | 70 | 100 | 70 | 70 | 90 | 90 | 60 | 90 | 
Cc1cc(C)c(N2CCC(OCC3CC3)C2=O)cc1NS(=O)(=O)C(F)(F)F (stereo not drawn) [Compound 22] | 100 | 100 | 20 | 40 | 50 | 100 | 55 | 90 | 100 | 50 | 60 | 90 | 20 | 90 | 90 | 
Cc1c(N2CCC(OC3CC3)C2=O)cc(N(COC(=O)C(C)(C)C)S(=O)(=O)C(F)(F)F)c(C)c1F (stereo not drawn) [Compound 23] | 30 | 100 | 20 | 50 | 30 | 90 | 40 | 10 | 30 | 10 | 60 | 80 | 10 | 80 | 90 | 
Cc1cc(Cl)c(N(COC(=O)C(C)(C)C)S(=O)(=O)C(F)(F)F)cc1N1CCC(OC2CC2)C1=O (stereo not drawn) [Compound 33] | 70 | 80 | 30 | 70 | 30 | 80 | 45 | 10 | 40 | 50 |  | 80 | 0 | 70 | 100 | 70
Cc1c(NS(=O)(=O)C(F)(F)F)cc(N2CCCC(OC3CCC3)C2=O)c(C)c1F (stereo not drawn) [Compound 36] | 90 | 100 | 30 | 30 | 70 | 90 | 0 | 40 | 100 | 60 |  | 65 | 20 | 40 | 70 | 60
Cc1c(N2CCCC(OC3CC3)C2=O)cc(N(COC(=O)C(C)(C)C)S(=O)(=O)C(F)(F)F)c(C)c1F (stereo not drawn) [Compound 37] | 50 | 90 | 20 | 70 | 0 | 90 | 0 | 0 | 20 | 10 |  | 70 | 0 | 80 | 80 | 60
CC(=O)N(c1cc(N2CCC(OC3CC3)C2=O)c(C)cc1Cl)S(=O)(=O)C(F)(F)F (stereo not drawn) [Compound 38] | 90 | 100 | 50 | 60 | 70 | 90 | 0 | 40 | 90 | 60 |  | 65 | 40 | 90 | 100 | 60
Cc1c(N2CCCC(OC3CCC3)C2=O)cc(N(COC(=O)C(C)(C)C)S(=O)(=O)C(F)(F)F)c(C)c1F (stereo not drawn) [Compound 39] | 0 | 40 | 0 | 20 | 0 | 80 | 0 | 0 | 0 | 0 |  | 55 | 0 | 70 | 90 | 60
